How the values were obtained:
Type in all cases: biochemical
[1] = target: T1, Myeloperoxidase (MPO) (Homo sapiens, UniProt P05164); assay: MPO peroxidation assay (o-dianisidine/H2O2), dose-response
[2] = target: T1, Myeloperoxidase (MPO); assay: MPO peroxidation assay ([…] at […]) and taurine-chloramine chlorination assay ([…] at […])
[3] = target: T1, Myeloperoxidase (MPO); assay: MPO peroxidation assay (o-dianisidine/H2O2), single concentration […]

T1 sequence (P05164 165-273): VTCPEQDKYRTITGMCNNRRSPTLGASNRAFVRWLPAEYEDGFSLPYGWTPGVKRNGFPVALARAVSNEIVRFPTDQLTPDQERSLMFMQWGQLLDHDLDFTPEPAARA
T1 sequence (P05164 279-745): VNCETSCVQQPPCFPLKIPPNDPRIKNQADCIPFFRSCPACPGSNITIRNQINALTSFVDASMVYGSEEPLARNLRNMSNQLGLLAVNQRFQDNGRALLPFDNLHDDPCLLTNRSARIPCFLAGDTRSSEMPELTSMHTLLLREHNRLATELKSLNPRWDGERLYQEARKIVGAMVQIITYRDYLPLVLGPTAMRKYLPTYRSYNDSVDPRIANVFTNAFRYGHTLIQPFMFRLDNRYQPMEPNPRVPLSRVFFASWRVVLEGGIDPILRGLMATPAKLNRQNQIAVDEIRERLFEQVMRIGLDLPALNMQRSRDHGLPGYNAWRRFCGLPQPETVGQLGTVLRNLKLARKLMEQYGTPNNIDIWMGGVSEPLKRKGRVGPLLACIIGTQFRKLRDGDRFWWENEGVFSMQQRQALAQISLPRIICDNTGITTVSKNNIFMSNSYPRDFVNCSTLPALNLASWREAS

| SMILES | IC50 [1] [µM] | further results |
| --- | --- | --- |
| Nc1ccc(O)c(C(=O)O)c1 [5-ASA, 5-aminosalicylic acid, reference compound] | 39 ± 2 |  |
| N/C(=C/c1ccccc1O)C(=O)O [2a, (E)-(2-hydroxy)-α-aminocinnamic acid] | 45 ± 4 |  |
| COc1ccc2c(c1)c(CC(=O)O)c(C)n2C(=O)c1ccc(Cl)cc1 [indomethacin, reference compound] | 29 ± 2 |  |
| N/C(=C/c1cc(Cl)ccc1O)C(=O)O [2c, (E)-(5-Chloro-2-hydroxy)-α-aminocinnamic acid] |  | inhibition at 100 µM [2]: 40.5 ± 4.4% |
| N/C(=C/c1cc(Br)ccc1O)C(=O)O [2b, (E)-(5-Bromo-2-hydroxy)-α-aminocinnamic acid] |  | inhibition at 100 µM [3]: 48.4 ± 4.1% |

Now from value to compound, other results behind:

| IC50 [1] [µM] | SMILES | further results |
| --- | --- | --- |
| 43 ± 4 | CCOc1cccc(/C=C(/N)C(=O)O)c1O [2e, (E)-(3-Ethoxy-2-hydroxy)-α-aminocinnamic acid] |  |
| 30 ± 5 | N/C(=C/c1ccc(O)cc1O)C(=O)O [2f, (E)-(2,4-dihydroxy)-α-aminocinnamic acid] |  |
| 26 ± 2 | N/C(=C/c1cc(O)ccc1O)C(=O)O [2h, (E)-(2,5-dihydroxy)-α-aminocinnamic acid] |  |
